Source: patent US5965524A, “Analogs of viscosin and uses thereof” (Peptide Technologies Corporation, priority 1994, dated 1999)
Like-named read-outs stand apart in the source and are kept apart here.

What was measured:
[1] = Cell toxicity in the HSV-2 assay
From the text: (Davis, B., Chapter 55 in Microbiology, Including Immunology and Molecular Genetics, 3rd Ed., Harper & Row, Philadelphia (1980), p. 1064). Particularly preferred host cells are rabbit skin cells or Vero cells. (Grammer, S., et al., J. Immunol. 145:2249-2253 (1990); Gao, W., et al., J. Biol. Chem. 265:20172-20178 (1990)). […] (See, e.g., Groupe, V., et al., Proc. Soc. Exptl. Biol. Med. 78:354-358 (1951); Mitsuya, H., et al., Science 226:172-174 (1984)). Acyclovir, a known antiherpesviral agent (Douglas, R., Chapter 51 in Goodman and Gilman's the Pharmacological Basis of Therapeutics, 8th Ed., G. Gilman et al., eds., Pergamon Press, New York (1980)), was used as a positive control.

[2] = tested on: Herpes Simplex Virus 2 (HSV-2); test: Inhibition of HSV-2 growth in cultured cells; type: cell-based; settings: lowest concentration at which 50% of the viruses are rendered noninfective
From the text: Particularly preferred host cells are rabbit skin cells or Vero cells. […] Acyclovir, a known antiherpesviral agent (Douglas, R., Chapter 51 in Goodman and Gilman's the Pharmacological Basis of Therapeutics, 8th Ed., G. Gilman et al., eds., Pergamon Press, New York (1980)), was used as a positive control.

Leishmania donovani [3] = test: Effect on growth of L. donovani in serum-containing and serum-free medium; type: cell-based; settings: cell densities at 21 hr, in some cases 43 hr, 27° C.; for Lowest concentration with activity against L. Donovani: Growth: serum-containing M199 medium; for Lowest concentration with activity against L. Donovani: Growth (Serum Free Medium): serum-free REIII medium
Description: For the purpose of determining the effect of the compounds on the growth of parasite in serum-containing and serum-free medium, the parasites were harvested from culture medium M199+5% FBS, washed twice in HBSS and resuspended in same at 1×10^8 /mL. Serum-containing M199 ans serum-free REIII media were filtered and sterilized prior to use. The washed cells were added to achieve an initial concentration of 1.66×10^6 cells/mL. Cell densities were determined by hemacytometry at 21 hr, and in some cases at 43 hr of incubation at 27° C.

Leishmania donovani [4] = test: Lysis of L. donovani parasites; type: cell-based; settings: parasites 1x10^8 per mL in HBSS; examined at 4 hr and after overnight at 27° C.

For CCCCCCC[C@@H](O)CC(=O)N[C@@H](CC(C)C)C(=O)N[C@H](CCC(=O)O)C(=O)N[C@@H](C(=O)N[C@@H](C(=O)N[C@@H](CC(C)C)C(=O)N[C@H](CO)C(=O)N[C@@H](CC(C)C)C(=O)N[C@H](CO)C(=O)N[C@H](C(=O)O)[C@@H](C)CC)C(C)C)[C@@H](C)O [Compound 5, Viscosic Acid], the “Cell Toxicity” value ([1]; host cells of the HSV-2 assay) was greater than 100 µg/mL.

With CC(=O)Nc1ccc2c(c1)OCCOCCOCCOCCO2 [Compound 16] the “Cell Toxicity” value [1] was greater than 100 µg/mL and the “HSV-2 LD50” value [2] was greater than 100 µg/mL.

For Octadecanoyl Viscosin [Compound 4], the “HSV-2 LD50” value [2] was greater than 100 µg/mL.

For CCCCCCCCCC(=O)N[C@@H](CC(C)C)C(=O)N[C@H](CCC(=O)O)C(=O)Nc1ccc2c(c1)OCCOCCOCCOCCO2 [Compound 13, 15-[[N-[N-[Decanoyl]-L-Leucyl]-D-glutamyl]amino]-2,3,5,6,8,9,11,12-octahydro-1,4,7,10,13-benzopentaoxacyclopentadecin], the “Lowest concentration with activity against L. Donovani: Growth” value (Leishmania donovani [3]) was “no effect”, the “Lowest concentration with activity against L. Donovani: Growth (Serum Free Medium)” value (from here on “Lowest concentration … (Serum Free Medium)”) (Leishmania donovani [3]) was “no effect” and the “Cell Toxicity” value [1] was greater than 100 µg/mL. The “Lowest concentration with activity against L. Donovani: Lysis” value (shortened to “Lowest concentration with activity … Lysis”) (Leishmania donovani [4]) was “no effect” and the “HSV-2 LD50” value [2] was greater than 100 µg/mL.

For CCCCCCCCCC(=O)N[C@@H](CC(C)C)C(=O)N[C@H](CCC(=O)OCc1ccccc1)C(=O)Nc1ccc2c(c1)OCCOCCOCCOCCO2 [Compound 12, 15-[[N-[N-[Decanoyl]-L-Leucyl]-O-(phenylmethyl)-D-glutamyl]amino]-2,3,5,6,8,9,11,12-octahydro-1,4,7,10,13-benzopentaoxacyclopentadecin], the “Lowest concentration with activity against L. Donovani: Growth” value (Leishmania donovani [3]) was “no effect”, the “Lowest concentration … (Serum Free Medium)” value (Leishmania donovani [3]) was “no effect” and the “Cell Toxicity” value [1] was 100 µg/mL. The “Lowest concentration with activity … Lysis” value (Leishmania donovani [4]) was 100 mg/mL and the “HSV-2 LD50” value [2] was greater than 50 µg/mL.

In the case of CCCCCCC[C@@H](O)CC(=O)N[C@@H](CC(C)C)C(=O)N[C@H](CCC(=O)OCc1ccccc1)C(=O)Nc1ccc2c(c1)OCCOCCOCCOCCO2 [Compound 10, 15-[[N-[N-[D-3-Hydroxydecanoyl]-L-Leucyl]-O-(phenylmethyl)-D-glutamyl]amino]-2,3,5,6,8,9,11,12-octahydro-1,4,7,10,13-benzopentaoxacyclopentadecin], the “Lowest concentration with activity against L. Donovani: Growth” value (Leishmania donovani [3]) is reported as 100 mg/mL, the “Lowest concentration … (Serum Free Medium)” value (Leishmania donovani [3]) is reported as 100 mg/mL and the “Cell Toxicity” value [1] is reported as greater than 100 µg/mL. The “Lowest concentration with activity … Lysis” value (Leishmania donovani [4]) was 30 mg/mL and the “HSV-2 LD50” value [2] was greater than 100 µg/mL.

For CCCCCCCCCCCCCCC(CCC(=O)OCc1ccccc1)C(=O)Nc1ccc2c(c1)OCCOCCOCCOCCO2 (stereo not shown) [Compound 14], the “Lowest concentration with activity against L. Donovani: Growth” value (Leishmania donovani [3]) was 100 mg/mL, the “Lowest concentration … (Serum Free Medium)” value (Leishmania donovani [3]) was 10 mg/mL and the “Cell Toxicity” value [1] was 100 µg/mL. The “Lowest concentration with activity … Lysis” value (Leishmania donovani [4]) was 30 mg/mL and the “HSV-2 LD50” value [2] was greater than 33 µg/mL.

In the case of CCCCCCCCCCCCCCCCCC(=O)c1ccc2c(c1)OCCOCCOCCOCCO2 [Compound 42, Octadecanoyl benzo-15-Crown-5-ether], the “Cell Toxicity” value [1] is reported as greater than 100 µg/mL and the “HSV-2 LD50” value [2] is reported as greater than 100 µg/mL.

For CCCCCCCCCCCCCCC(CCC(=O)O)C(=O)Nc1ccc2c(c1)OCCOCCOCCOCCO2 (stereo not shown) [Compound 15], the “Lowest concentration with activity against L. Donovani: Growth” value (Leishmania donovani [3]) was 30 mg/mL, the “Lowest concentration … (Serum Free Medium)” value (Leishmania donovani [3]) was 10 mg/mL and the “Cell Toxicity” value [1] was 33 µg/mL. For the same compound, the “Lowest concentration with activity … Lysis” value (Leishmania donovani [4]) was 30 mg/mL and the “HSV-2 LD50” value [2] was 11 µg/mL.

With CCCCCCC[C@@H](O)CC(=O)N[C@@H](CC(C)C)C(=O)N[C@H](CCC(=O)O)C(=O)Nc1ccc2c(c1)OCCOCCOCCOCCO2 [Compound 11, 15-[[N-[N-[D-3-Hydroxydecanoyl]-L-Leucyl]-D-glutamyl]amino]-2,3,5,6,8,9,11,12-octahydro-1,4,7,10,13-benzopentaoxacyclopentadecin] the “Lowest concentration with activity against L. Donovani: Growth” value (Leishmania donovani [3]) was “no effect”, the “Lowest concentration … (Serum Free Medium)” value (Leishmania donovani [3]) was “no effect” and the “Cell Toxicity” value [1] was greater than 100 µg/mL. For the same compound, the “Lowest concentration with activity … Lysis” value (Leishmania donovani [4]) was “no effect” and the “HSV-2 LD50” value [2] was greater than 100 µg/mL.

With Nc1nc2c(ncn2COCCO)c(=O)[nH]1 [Acyclovir, reference compound] the “HSV-2 LD50” value [2] was 0.6 to 1.5 µg/mL.

For Deshydroxy Viscosin [Compound 3], the “HSV-2 LD50” value [2] was 19 to 28 µg/mL.

For CCCCCCC[C@@H](O)CC(=O)N[C@@H](CC(C)C)C(=O)N[C@H](CCC(=O)O)C(N)=O [Compound 7, D-3-Hydroxydecanoyl-L-Leu-D-Glu-Amide], the “Lowest concentration with activity against L. Donovani: Growth” value (Leishmania donovani [3]) was “no effect”, the “Lowest concentration … (Serum Free Medium)” value (Leishmania donovani [3]) was “no effect” and the “Cell Toxicity” value [1] was greater than 100 µg/mL. The “Lowest concentration with activity … Lysis” value (Leishmania donovani [4]) was “no effect” and the “HSV-2 LD50” value [2] was greater than 100 µg/mL.
